The text below walks through data of US8815775B2 (priority 2010, dated 2014).

One series in a line: log P by HPLC (EEC Directive 79/831 Annex V.A8). To be noted: HPLC with aqueous formic acid/acetonitrile eluents, pH 2.7; HCOOH; read-out: log P (HCOOH). The class given is physicochemical. As for the experimental part: The log P values were measured according to EEC Directive 79/831 Annex V.A8 by HPLC (high-performance liquid chromatography).
The LC-MS determination within the acidic range is effected at pH 2.7 with 0.1% aqueous formic acid and acetonitrile (contains 0.1% formic acid) as eluents; linear gradient from 10% acetonitrile to 95% acetonitrile.
The calibration is carried out using unbranched alkan-2-ones (having 3 to 16 carbon atoms) with known log P values (determination of the log P values by the retention times using linear interpolation between two successive alkanones). The lambda-maX values were determined in the maxima of the chromatographic signals using the UV spectra from 200 nm to 400 nm.
Consider `CC(C)(C)OC(=O)N1CCC(O)(c2nc(Br)cs2)CC1` [IV-1, tert-Butyl 4-(4-bromo-1,3-thiazol-2-yl)-4-hydroxypiperidine-1-carboxylate], for which the chromatographic logP came out at 2.74.
`CC(C)(C)OC(=O)N1CCC(F)(c2nc(Br)cs2)CC1` [Va-1, tert-Butyl 4-(4-bromo-1,3-thiazol-2-yl)-4-fluoropiperidine-1-carboxylate]: the chromatographic logP was determined as 3.94.

Still in this series, the particulars now being: HPLC with aqueous formic acid/acetonitrile eluents, pH 2.7; read-out: log P (pH2.7).
As for `CN(C(=O)c1csc(C2(F)CCN(C(=O)Cn3nc(C(F)F)cc3C(F)F)CC2)n1)C1CCCc2ccccc21` (racemic) [I-a-4, (±)-2-(1-{[3,5-bis(Difluoromethyl)-1H-pyrazol-1-yl]acetyl}-4-fluoropiperidin-4-yl)-N-methyl-N-(1,2,3,4-tetrahydronaphthalen-1-yl)-1,3-thiazole-4-carboxamide], the chromatographic logP was 3.56.
On the same count and under the same terms, to `CCOC(=O)c1csc(C2(F)CCN(C(=O)Cn3nc(C(F)F)cc3C(F)F)CC2)n1` [IXa-1, Ethyl 2-(1-{[3,5-bis(difluoromethyl)-1H-pyrazol-1-yl]acetyl}-4-fluoropiperidin-4-yl)-1,3-thiazole-4-carboxylate] belongs 2.82; to `CCOC(=O)c1csc(C2(F)CCNCC2)n1` [VII-1, 4-[4-(Ethoxycarbonyl)-1,3-thiazol-2-yl]-4-fluoropiperidinium chloride], 0.39; to `CCOC(=O)c1csc(C2(F)CCN(C(=O)OC(C)(C)C)CC2)n1` [VIa-1, tert-Butyl 4-[4-(ethoxycarbonyl)-1,3-thiazol-2-yl]-4-fluoropiperidine-1-carboxylate], 3.47.
The same measure, in the same setting: to `O=C(O)c1csc(C2(F)CCN(C(=O)Cn3nc(C(F)F)cc3C(F)F)CC2)n1` [Xa-1, 2-(1-{[3,5-bis(Difluoromethyl)-1H-pyrazol-1-yl]acetyl}-4-fluoropiperidin-4-yl)-1,3-thiazole-4-carboxylic acid] belongs 1.96.
